Drawing on patent US8124610B2, “Sodium channel inhibitors” (Icagen Inc., priority 2007, dated 2012), this text covers IC50 for 30 compounds.

For experiment [1], the target named is T1, hSCN9A (Homo sapiens, UniProt Q15858).
T1 construct: expressed in transfected cells
Briefly: Whole-cell patch-clamp electrophysiology (conventional or PatchXpress), HEK cells expressing hSCN9A, estimated IC-50. The settings on record: estimated IC-50, HEK cells expressing hSCN9A; class symbols or bounds; read-out: SCN9A EIC-50. It is filed as cell-based. Put shortly:
(§1)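 Stably transfected HEK cells recorded by whole-cell voltage clamp (manual or PatchXpress) at 22–24 °C in pH 7.4 HEPES-buffered extracellular solution. Cells held at the empirically determined inactivation V1/2 after an 8 s prepulse, then stepped to 0 mV for 20 ms; % inhibition from current amplitude before vs after compound.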

Experiment [2] concerns the target T2, hSCN3A (Homo sapiens, UniProt Q9NY46).
T2 construct: expressed in transfected cells
Briefly: Whole-cell patch-clamp electrophysiology (conventional or PatchXpress), HEK cells expressing hSCN3A, estimated IC-50. The settings on record: estimated IC-50, HEK cells expressing hSCN3A; class symbols or bounds; read-out: SCN3A EIC-50. It is filed as cell-based. Put shortly: as §1

SMILES strings stand for the structures. pIC50: −log10 of the molar value.

T2 sequence (Q9NY46 whole entry): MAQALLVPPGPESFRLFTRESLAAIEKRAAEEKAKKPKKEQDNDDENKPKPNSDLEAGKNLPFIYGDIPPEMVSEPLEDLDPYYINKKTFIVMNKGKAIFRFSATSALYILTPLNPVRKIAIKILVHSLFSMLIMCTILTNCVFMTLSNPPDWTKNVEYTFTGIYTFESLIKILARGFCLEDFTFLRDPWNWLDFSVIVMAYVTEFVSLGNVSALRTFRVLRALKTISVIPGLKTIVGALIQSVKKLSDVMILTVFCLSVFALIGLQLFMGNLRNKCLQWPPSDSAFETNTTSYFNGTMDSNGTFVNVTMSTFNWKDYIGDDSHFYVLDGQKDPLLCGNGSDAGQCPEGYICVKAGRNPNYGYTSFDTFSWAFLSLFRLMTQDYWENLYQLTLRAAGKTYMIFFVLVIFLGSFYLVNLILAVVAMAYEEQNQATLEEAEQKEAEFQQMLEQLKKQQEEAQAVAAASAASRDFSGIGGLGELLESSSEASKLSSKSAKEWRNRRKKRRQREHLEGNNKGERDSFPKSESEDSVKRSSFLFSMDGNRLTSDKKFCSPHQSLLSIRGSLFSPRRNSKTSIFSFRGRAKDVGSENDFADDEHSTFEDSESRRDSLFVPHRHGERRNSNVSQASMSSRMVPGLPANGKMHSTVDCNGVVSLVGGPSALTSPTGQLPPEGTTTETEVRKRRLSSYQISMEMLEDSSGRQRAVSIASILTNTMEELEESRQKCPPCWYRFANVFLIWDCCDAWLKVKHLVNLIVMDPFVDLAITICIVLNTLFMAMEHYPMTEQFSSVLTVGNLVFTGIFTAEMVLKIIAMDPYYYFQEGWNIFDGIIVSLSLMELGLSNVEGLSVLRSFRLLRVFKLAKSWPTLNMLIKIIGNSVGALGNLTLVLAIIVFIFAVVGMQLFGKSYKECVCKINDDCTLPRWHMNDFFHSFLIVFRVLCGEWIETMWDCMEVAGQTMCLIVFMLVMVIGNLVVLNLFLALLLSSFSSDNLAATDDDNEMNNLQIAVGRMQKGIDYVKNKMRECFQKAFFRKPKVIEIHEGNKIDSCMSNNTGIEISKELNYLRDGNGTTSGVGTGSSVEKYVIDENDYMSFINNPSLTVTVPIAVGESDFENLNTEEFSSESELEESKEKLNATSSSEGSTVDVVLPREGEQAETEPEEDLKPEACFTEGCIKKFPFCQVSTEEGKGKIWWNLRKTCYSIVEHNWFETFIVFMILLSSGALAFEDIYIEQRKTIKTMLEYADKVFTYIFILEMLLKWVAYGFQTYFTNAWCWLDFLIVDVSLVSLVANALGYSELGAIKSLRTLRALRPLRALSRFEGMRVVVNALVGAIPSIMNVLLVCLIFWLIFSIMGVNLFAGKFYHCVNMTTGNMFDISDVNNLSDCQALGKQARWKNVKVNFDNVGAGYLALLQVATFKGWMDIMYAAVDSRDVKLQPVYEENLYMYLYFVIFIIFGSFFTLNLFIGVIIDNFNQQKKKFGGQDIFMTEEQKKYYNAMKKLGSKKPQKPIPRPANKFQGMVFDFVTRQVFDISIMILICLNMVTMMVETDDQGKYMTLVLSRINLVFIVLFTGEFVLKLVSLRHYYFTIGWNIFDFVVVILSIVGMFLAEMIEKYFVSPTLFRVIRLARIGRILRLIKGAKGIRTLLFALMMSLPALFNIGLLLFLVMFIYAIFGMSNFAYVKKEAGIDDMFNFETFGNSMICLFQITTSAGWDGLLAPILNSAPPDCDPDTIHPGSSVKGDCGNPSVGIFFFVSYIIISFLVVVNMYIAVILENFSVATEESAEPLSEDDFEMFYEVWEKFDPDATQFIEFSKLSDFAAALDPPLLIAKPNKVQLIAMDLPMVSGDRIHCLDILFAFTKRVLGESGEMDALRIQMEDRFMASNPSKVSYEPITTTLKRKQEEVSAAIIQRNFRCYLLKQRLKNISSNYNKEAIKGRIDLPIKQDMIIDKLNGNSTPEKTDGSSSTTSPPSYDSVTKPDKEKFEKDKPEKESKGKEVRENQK
T1 sequence (Q15858 whole entry): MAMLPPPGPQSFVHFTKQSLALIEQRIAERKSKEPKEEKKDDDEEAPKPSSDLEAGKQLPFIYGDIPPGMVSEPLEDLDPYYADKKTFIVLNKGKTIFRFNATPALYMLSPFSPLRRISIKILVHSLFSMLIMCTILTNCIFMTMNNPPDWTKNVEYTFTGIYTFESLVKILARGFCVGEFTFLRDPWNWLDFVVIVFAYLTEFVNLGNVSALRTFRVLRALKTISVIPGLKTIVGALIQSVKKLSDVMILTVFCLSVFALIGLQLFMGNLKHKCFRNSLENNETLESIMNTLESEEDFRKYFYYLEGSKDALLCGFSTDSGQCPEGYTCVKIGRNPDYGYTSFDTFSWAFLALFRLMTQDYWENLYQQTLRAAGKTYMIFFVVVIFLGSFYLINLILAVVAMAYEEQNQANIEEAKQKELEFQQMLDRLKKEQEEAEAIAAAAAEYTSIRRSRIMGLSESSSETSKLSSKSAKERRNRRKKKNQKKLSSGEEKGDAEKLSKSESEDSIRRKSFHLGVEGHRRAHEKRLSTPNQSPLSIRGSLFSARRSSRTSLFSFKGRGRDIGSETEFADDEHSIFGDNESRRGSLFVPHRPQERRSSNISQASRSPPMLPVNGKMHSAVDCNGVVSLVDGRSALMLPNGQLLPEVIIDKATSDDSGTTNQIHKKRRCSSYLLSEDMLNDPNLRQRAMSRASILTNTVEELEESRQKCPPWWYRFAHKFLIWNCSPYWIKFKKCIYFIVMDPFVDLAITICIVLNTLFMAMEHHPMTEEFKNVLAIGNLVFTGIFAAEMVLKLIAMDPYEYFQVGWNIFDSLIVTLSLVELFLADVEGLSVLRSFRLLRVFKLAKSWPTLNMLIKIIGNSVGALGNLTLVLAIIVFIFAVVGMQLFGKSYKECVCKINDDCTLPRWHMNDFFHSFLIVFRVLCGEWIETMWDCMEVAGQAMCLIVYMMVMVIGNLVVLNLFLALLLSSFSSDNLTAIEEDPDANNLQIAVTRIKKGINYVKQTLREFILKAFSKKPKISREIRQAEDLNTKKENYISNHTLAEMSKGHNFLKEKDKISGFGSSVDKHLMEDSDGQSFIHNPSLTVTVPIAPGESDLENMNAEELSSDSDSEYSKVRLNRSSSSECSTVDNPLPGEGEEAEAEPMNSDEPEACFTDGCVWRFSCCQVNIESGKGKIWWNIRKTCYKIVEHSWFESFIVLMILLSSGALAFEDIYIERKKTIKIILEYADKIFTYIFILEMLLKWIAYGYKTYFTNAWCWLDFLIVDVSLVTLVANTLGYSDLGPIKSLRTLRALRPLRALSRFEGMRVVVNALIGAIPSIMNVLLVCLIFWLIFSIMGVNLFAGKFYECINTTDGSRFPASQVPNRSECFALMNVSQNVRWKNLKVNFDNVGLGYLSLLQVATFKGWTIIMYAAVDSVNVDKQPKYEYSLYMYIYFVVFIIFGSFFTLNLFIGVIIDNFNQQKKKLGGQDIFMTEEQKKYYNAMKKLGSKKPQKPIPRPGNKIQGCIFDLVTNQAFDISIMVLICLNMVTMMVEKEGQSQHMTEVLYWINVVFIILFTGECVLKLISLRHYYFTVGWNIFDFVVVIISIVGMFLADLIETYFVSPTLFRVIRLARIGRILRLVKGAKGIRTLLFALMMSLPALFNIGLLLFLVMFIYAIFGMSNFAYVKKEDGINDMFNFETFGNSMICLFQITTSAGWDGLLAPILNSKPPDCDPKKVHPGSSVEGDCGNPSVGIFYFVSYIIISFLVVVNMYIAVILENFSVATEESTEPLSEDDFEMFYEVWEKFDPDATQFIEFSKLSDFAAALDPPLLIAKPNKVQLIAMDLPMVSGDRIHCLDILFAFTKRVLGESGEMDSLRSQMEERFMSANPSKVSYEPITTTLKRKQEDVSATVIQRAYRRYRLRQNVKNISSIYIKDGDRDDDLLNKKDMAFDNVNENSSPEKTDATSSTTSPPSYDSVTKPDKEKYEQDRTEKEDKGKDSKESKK

Take `Cc1cc(Nc2ccc(S(=O)(=O)Nc3nccs3)c(F)c2)n(-c2ccccc2Cl)n1` [Compound 149, 4-(1-(2-chlorophenyl)-3-methyl-1H-pyrazol-5-ylamino)-2-fluoro-N-(thiazol-2-yl)benzenesulfonamide]: the pIC50 in experiment [1] and in experiment [2] was greater than 5.70 throughout.

`O=S(=O)(Nc1nccs1)c1ccc(Nc2cnn(Cc3ccc(C(F)(F)F)cc3)c2)cc1F` [Compound 150, 2-fluoro-N-(thiazol-2-yl)-4-(1-(4-(trifluoromethyl)benzyl)-1H-pyrazol-4-ylamino)benzenesulfonamide]: the pIC50 in experiment [1] and in experiment [2] was greater than 5.70 each time.

For the compound `O=S(=O)(Nc1nccs1)c1ccc(Nc2ccnn2-c2ccccc2)cc1` [Compound 151, 4-(1-phenyl-1H-pyrazol-5-ylamino)-N-(thiazol-2-yl)benzenesulfonamide], the pIC50 is 5.00 to 5.70 in experiment [1] and greater than 5.70 in experiment [2].

Turning to `Cc1cc(Nc2ccc(S(=O)(=O)Nc3nccs3)c(F)c2)n(-c2cccc(Cl)c2)n1` [Compound 152, 4-(1-(3-chlorophenyl)-3-methyl-1H-pyrazol-5-ylamino)-2-fluoro-N-(thiazol-2-yl)benzenesulfonamide], the pIC50 in experiment [1] and in experiment [2] was greater than 5.70 in each case.

`Cn1nc(-c2ccc(Cl)cc2)cc1Nc1ccc(S(=O)(=O)Nc2nccs2)c(F)c1` [Compound 153, 4-(3-(4-chlorophenyl)-1-methyl-1H-pyrazol-5-ylamino)-2-fluoro-N-(thiazol-2-yl)benzenesulfonamide]: the pIC50 in experiment [1] and in experiment [2] was greater than 5.70 each time.

For `O=S(=O)(Nc1nccs1)c1ccc(Nc2cc(-c3ccccc3)nn2-c2ccccc2)cc1F` [Compound 154, 4-(1,3-diphenyl-1H-pyrazol-5-ylamino)-2-fluoro-N-(thiazol-2-yl)benzenesulfonamide], the pIC50 in experiment [1] and in experiment [2] was greater than 5.70 throughout.

Consider `NC(=O)Cn1nc(Cc2ccc(Cl)cc2)cc1Nc1ccc(S(=O)(=O)Nc2nccs2)cc1` [Compound 155, 2-(3-(4-chlorobenzyl)-5-(4-(N-thiazol-2-ylsulfamoyl)phenylamino)-1H-pyrazol-1-yl)acetamide], for which the pIC50 in experiment [1] and in experiment [2] was greater than 5.70 throughout.

`CC(C)(C)c1cc(Nc2ccc(S(=O)(=O)Nc3nccs3)c(F)c2)n(-c2ccccc2)n1` [Compound 156, 4-(3-tert-butyl-1-phenyl-1H-pyrazol-5-ylamino)-2-fluoro-N-(thiazol-2-yl)benzenesulfonamide]: the pIC50 in experiment [1] and in experiment [2] was greater than 5.70 each time.

Regarding `Cc1cc(Nc2ccc(S(=O)(=O)Nc3nccs3)c(Cl)c2)n(-c2ccccc2)n1` [Compound 161, 2-chloro-4-(3-methyl-1-phenyl-1H-pyrazol-5-ylamino)-N-(thiazol-2-yl)benzenesulfonamide], the pIC50 in experiment [1] and in experiment [2] was greater than 5.70 each time.

In the case of `Cc1cc(Nc2ccc(S(=O)(=O)Nc3ncc(Cl)s3)c(F)c2)n(-c2ccccc2)n1` [Compound 162, N-(5-chlorothiazol-2-yl)-2-fluoro-4-(3-methyl-1-phenyl-1H-pyrazol-5-ylamino)benzenesulfonamide], the pIC50 in experiment [1] and in experiment [2] was greater than 5.70 each time.

In the case of `O=S(=O)(Nc1nccs1)c1ccc(Nc2ccccc2-c2ccccc2)cc1F` [Compound 172, 4-(biphenyl-2-ylamino)-2-fluoro-N-(thiazol-2-yl)benzenesulfonamide], the pIC50 in experiment [1] and in experiment [2] was greater than 5.70 each time.

Turning to `Cc1cc(Nc2ccc(S(=O)(=O)Nc3nccs3)c(F)c2)n(-c2ccccc2F)n1` [Compound 173, 2-fluoro-4-(1-(2-fluorophenyl)-3-methyl-1H-pyrazol-5-ylamino)-N-(thiazol-2-yl)benzenesulfonamide], the pIC50 in experiment [1] and in experiment [2] was greater than 5.70 each time.

Consider `Cc1cc(Nc2ccc(S(=O)(=O)Nc3nccs3)c(F)c2)n(-c2ccc(F)cc2Cl)n1` [Compound 182, 4-(1-(2-chloro-4-fluorophenyl)-3-methyl-1H-pyrazol-5-ylamino)-2-fluoro-N-(thiazol-2-yl)benzenesulfonamide], for which the pIC50 in experiment [1] and in experiment [2] was greater than 5.70 throughout.

As for `O=S(=O)(Nc1nccs1)c1ccc(Nc2ccn(Cc3ccc(C(F)(F)F)cc3)n2)cc1F` [Compound 183, 2-fluoro-N-(thiazol-2-yl)-4-(1-(4-(trifluoromethyl)benzyl)-1H-pyrazol-3-ylamino)benzenesulfonamide], the pIC50 in experiment [1] and in experiment [2] was greater than 5.70 each time.

As for `O=S(=O)(Nc1nccs1)c1ccc(Nc2ccn(Cc3ccc(Cl)cc3)n2)c(F)c1` [Compound 184, 4-(1-(4-chlorobenzyl)-1H-pyrazol-3-ylamino)-3-fluoro-N-(thiazol-2-yl)benzenesulfonamide], the pIC50 in experiment [1] and in experiment [2] was greater than 5.70 in each case.

Regarding `O=S(=O)(Nc1nccs1)c1ccc(Nc2ccn(Cc3ccc(C(F)(F)F)cc3)n2)c(F)c1` [Compound 185, 3-fluoro-N-(thiazol-2-yl)-4-(1-(4-(trifluoromethyl)benzyl)-1H-pyrazol-3-ylamino)benzenesulfonamide], the pIC50 in experiment [1] and in experiment [2] was greater than 5.70 in each case.

On to `COc1ccccc1-n1nc(C)cc1Nc1ccc(S(=O)(=O)Nc2nccs2)c(F)c1` [Compound 188, 2-fluoro-4-(1-(2-methoxyphenyl)-3-methyl-1H-pyrazol-5-ylamino)-N-(thiazol-2-yl)benzenesulfonamide], for which the pIC50 in experiment [1] and in experiment [2] was greater than 5.70 each time.

Turning to `Cc1cc(Nc2ccc(S(=O)(=O)Nc3nccs3)c(F)c2)n(-c2c(C)cccc2C)n1` [Compound 191, 4-(1-(2,6-dimethylphenyl)-3-methyl-1H-pyrazol-5-ylamino)-2-fluoro-N-(thiazol-2-yl)benzenesulfonamide], the pIC50 in experiment [1] and in experiment [2] was greater than 5.70 in each case.

Regarding `Cn1nc(C(C)(C)C)cc1Nc1ccc(S(=O)(=O)Nc2nccs2)c(F)c1` [Compound 193, 4-(3-tert-butyl-1-methyl-1H-pyrazol-5-ylamino)-2-fluoro-N-(thiazol-2-yl)benzenesulfonamide], the pIC50 in experiment [1] and in experiment [2] was greater than 5.70 throughout.

For the compound `O=S(=O)(Nc1nccs1)c1ccc(Nc2ccn(Cc3ccc(Cl)cc3F)n2)c(F)c1` [Compound 198, 4-(1-(4-chloro-2-fluorobenzyl)-1H-pyrazol-3-ylamino)-3-fluoro-N-(thiazol-2-yl)benzenesulfonamide], the pIC50 in experiment [1] and in experiment [2] was greater than 5.70 in each case.

`O=S(=O)(Nc1nccs1)c1ccc(Nc2ncn(Cc3cccc(Cl)c3)n2)c(F)c1` [Compound 201, 4-(1-(3-chlorobenzyl)-1H-1,2,4-triazol-3-ylamino)-3-fluoro-N-(thiazol-2-yl)benzenesulfonamide]: the pIC50 in experiment [1] is greater than 5.70; in experiment [2] it was 5.00 to 5.70.

`O=S(=O)(Nc1nccs1)c1ccc(Nc2cc(CC(F)(F)F)nn2-c2ccccc2F)cc1F` [Compound 204, 2-fluoro-4-(1-(2-fluorophenyl)-3-(2,2,2-trifluoroethyl)-1H-pyrazol-5-ylamino)-N-(thiazol-2-yl)benzenesulfonamide]: the pIC50 in experiment [1] and in experiment [2] was greater than 5.70 in each case.

As to `O=S(=O)(Nc1nccs1)c1ccc(Nc2ccn(Cc3ccc(Cl)cc3)n2)c(Cl)c1` [Compound 205, 3-chloro-4-(1-(4-chlorobenzyl)-1H-pyrazol-3-ylamino)-N-(thiazol-2-yl)benzenesulfonamide], the pIC50 in experiment [1] and in experiment [2] was greater than 5.70 in each case.

Turning to `O=S(=O)(Nc1nccs1)c1cc(F)c(Nc2ccn(Cc3ccc(Cl)cc3)n2)cc1F` [Compound 206, 4-(1-(4-chlorobenzyl)-1H-pyrazol-3-ylamino)-2,5-difluoro-N-(thiazol-2-yl)benzenesulfonamide], the pIC50 in experiment [1] and in experiment [2] was greater than 5.70 each time.

`CCN(CC)C(=O)Cc1cc(Nc2ccc(S(=O)(=O)Nc3nccs3)c(F)c2)n(-c2ccccc2)n1` [Compound 216, N,N-diethyl-2-(5-(3-fluoro-4-(N-thiazol-2-ylsulfamoyl)phenylamino)-1-phenyl-1H-pyrazol-3-yl)ethanamide]: the pIC50 in experiment [1] was greater than 5.70; in experiment [2] it was less than 6.00.

As for `COc1cc(Cl)ccc1-c1cc(Nc2ccc(S(=O)(=O)Nc3nccs3)c(F)c2)n(C)n1` [Compound 222, 4-(3-(4-chloro-2-methoxyphenyl)-1-methyl-1H-pyrazol-5-ylamino)-2-fluoro-N-(thiazol-2-yl)benzenesulfonamide], the pIC50 in experiment [1] and in experiment [2] was greater than 5.70 in each case.

`O=S(=O)(Nc1nccs1)c1ccc(Nc2ccn(Cc3ccc(Cl)cc3)n2)nc1` [Compound 227, 6-(1-(4-chlorobenzyl)-1H-pyrazol-3-ylamino)-N-(thiazol-2-yl)pyridine-3-sulfonamide]: the pIC50 in experiment [1] was 5.00 to 5.70; in experiment [2] it was greater than 5.70.

Take `O=S(=O)(Nc1nccs1)c1ccc(Nc2cnn(Cc3ccc(Cl)cc3)c2)nc1` [Compound 228, 6-(1-(4-chlorobenzyl)-1H-pyrazol-4-ylamino)-N-(thiazol-2-yl)pyridine-3-sulfonamide]: the pIC50 in experiment [1] was 5.00 to 5.70; in experiment [2], greater than 5.70.

Turning to `O=S(=O)(Nc1nccs1)c1ccc(Nc2ccn(Cc3ccc(Cl)cc3)n2)cn1` [Compound 235, 5-(1-(4-chlorobenzyl)-1H-pyrazol-3-ylamino)-N-(thiazol-2-yl)pyridine-2-sulfonamide], the pIC50 in experiment [1] is 5.00 to 5.70; in experiment [2], greater than 5.70.

Turning to `O=S(=O)(Nc1ncns1)c1ccc(Nc2ccn(Cc3ccc(Cl)cc3)n2)cc1F` [Compound 244, 4-(1-(4-chlorobenzyl)-1H-pyrazol-3-ylamino)-2-fluoro-N-(1,2,4-thiadiazol-5-yl)benzenesulfonamide], the pIC50 in experiment [1] and in experiment [2] was greater than 5.70 throughout.
